From patent US20040044037A1, “Amidino-urea serotonin receptor ligands and compositions, their pharmaceutical uses, and methods for their snythesis” (priority 2003, published 2004)
Like-named read-outs stand apart in the source and are kept apart here.

Columns and labels:
[1] = molecular target: T1, human 5-HT6 (h5-HT6) receptors (Homo sapiens, UniProt P50406); assay: Competition radioligand binding, h5-HT6
T1 construct: purchased Receptor Biology, Inc. (Beltsville, Md.); host or cells: HEK-293 cells

human 5-HT1a receptors = molecular target: T2, human 5-HT1a receptors (Homo sapiens, UniProt P08908); assay: Competition radioligand binding, h5-HT1a
T2 construct: expressed in transfected cells; host or cells: CHO K1 cells
T2 sequence (P08908 1-422): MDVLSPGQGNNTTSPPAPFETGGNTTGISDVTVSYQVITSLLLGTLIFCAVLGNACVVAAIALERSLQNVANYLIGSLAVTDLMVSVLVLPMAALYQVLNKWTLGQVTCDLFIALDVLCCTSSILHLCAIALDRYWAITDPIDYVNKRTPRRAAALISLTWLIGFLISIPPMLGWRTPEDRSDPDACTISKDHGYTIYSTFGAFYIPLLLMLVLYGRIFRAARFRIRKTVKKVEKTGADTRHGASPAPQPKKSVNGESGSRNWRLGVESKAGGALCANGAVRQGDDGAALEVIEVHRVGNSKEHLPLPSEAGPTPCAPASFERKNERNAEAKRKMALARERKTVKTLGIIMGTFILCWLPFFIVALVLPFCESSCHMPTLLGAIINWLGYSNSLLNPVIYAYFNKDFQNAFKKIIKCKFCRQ
In short: (§1)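 Human 5-HT1a and 5-HT2a receptors were expressed in CHO K1 cell membranes. Competition binding was stopped by filtration onto PEI-soaked GF/C filters and counted by liquid scintillation. IC50 values and Hill slopes came from nonlinear regression, and Ki was calculated by Cheng–Prusoff.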

[2] = molecular target: T3, human D2S dopamine (hD2S-DA) receptors (Homo sapiens, UniProt P14416); assay: Competition radioligand binding, hD2S dopamine
T3 construct: purchased Receptor Biology, Inc. (Beltsville, Md.); host or cells: A9 L cells

[3] = molecular target: T4, human 5-HT7B (h5-HT7b) receptors (Homo sapiens, UniProt P34969); assay: Competition radioligand binding, h5-HT7b
T4 construct: expressed in transfected cells
In short: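 Membranes from HEK 293 cells stably expressing human 5-HT7b incubated with ~0.2 nM [3H]5-CT and varying compound 2 h at 37 °C in HEPES buffer pH 7.4 with pargyline. Nonspecific binding with 1 μM 5-HT; filtration, scintillation counting; IC50 by nonlinear regression converted to Ki via Cheng–Prusoff.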

human 5HT2a receptors = molecular target: T5, human 5HT2a receptors (Homo sapiens, UniProt P28223); assay: Competition radioligand binding, 5-HT2A
T5 construct: expressed in transfected cells; host or cells: CHO K1 cells
In short: as §1

[4] = [3H]LSD, membranes of HEK-293 cells, read-out: Ki 5-HT6
[5] = [3H]5-CT, membranes of CHO K1 cells, read-out: Ki 5-HT1A
[6] = [3H]Spiperone, membranes of A9 L cells, read-out: Ki D2
[7] = [3H]5-CT, membranes of HEK 293 cells, read-out: Ki 5-HT7
[8] = [3H]Ketanserin, membranes of CHO K1 cells, read-out: Ki 5-HT2A

T5 sequence (P28223 whole entry): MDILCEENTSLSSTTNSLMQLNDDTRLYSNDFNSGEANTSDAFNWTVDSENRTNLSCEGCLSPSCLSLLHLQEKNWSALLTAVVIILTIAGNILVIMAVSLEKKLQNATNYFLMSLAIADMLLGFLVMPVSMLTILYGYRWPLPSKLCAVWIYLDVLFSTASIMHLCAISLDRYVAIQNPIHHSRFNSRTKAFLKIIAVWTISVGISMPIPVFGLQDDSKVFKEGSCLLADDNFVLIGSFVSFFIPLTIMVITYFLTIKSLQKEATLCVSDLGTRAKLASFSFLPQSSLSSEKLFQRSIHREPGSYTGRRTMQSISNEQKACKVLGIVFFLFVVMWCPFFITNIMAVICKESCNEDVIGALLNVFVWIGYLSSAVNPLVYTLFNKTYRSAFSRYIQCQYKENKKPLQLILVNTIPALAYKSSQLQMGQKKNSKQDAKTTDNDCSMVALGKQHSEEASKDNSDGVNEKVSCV
T3 sequence (P14416 1-414 isoform P14416-2): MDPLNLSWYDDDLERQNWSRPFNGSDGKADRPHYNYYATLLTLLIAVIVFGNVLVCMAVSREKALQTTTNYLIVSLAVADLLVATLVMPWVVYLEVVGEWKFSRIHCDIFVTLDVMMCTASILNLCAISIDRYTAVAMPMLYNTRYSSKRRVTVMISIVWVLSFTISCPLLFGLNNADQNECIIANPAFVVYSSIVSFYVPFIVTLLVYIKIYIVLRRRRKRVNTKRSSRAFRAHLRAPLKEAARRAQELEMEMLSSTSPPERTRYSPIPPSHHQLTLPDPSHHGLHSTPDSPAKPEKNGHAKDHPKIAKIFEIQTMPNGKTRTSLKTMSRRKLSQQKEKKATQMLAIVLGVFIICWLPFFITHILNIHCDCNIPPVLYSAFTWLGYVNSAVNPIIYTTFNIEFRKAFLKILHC
T4 sequence (P34969 1-432 limits assumed): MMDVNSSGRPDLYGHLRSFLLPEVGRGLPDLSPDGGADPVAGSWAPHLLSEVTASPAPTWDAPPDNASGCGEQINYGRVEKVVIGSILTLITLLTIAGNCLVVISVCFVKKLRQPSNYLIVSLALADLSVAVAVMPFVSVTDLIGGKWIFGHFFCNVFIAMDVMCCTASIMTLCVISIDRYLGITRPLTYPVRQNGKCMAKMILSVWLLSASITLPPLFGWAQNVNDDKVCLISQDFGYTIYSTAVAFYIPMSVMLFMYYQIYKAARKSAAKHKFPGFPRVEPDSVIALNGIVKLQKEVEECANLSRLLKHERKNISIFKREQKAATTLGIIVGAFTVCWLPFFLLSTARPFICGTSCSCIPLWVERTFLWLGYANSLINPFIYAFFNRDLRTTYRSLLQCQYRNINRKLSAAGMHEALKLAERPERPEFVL
T1 sequence (P50406 whole entry): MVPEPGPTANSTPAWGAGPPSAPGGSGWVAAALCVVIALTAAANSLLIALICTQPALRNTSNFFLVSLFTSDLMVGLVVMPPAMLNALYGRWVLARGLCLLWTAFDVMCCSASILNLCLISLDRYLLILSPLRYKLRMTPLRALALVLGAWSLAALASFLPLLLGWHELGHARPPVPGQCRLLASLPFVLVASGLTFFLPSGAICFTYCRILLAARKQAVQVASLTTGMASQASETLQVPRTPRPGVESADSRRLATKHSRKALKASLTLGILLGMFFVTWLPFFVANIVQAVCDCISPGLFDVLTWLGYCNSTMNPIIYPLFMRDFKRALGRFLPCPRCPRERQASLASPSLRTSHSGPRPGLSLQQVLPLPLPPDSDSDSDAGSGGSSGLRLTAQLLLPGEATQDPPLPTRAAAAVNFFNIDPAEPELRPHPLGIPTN

Row | Compound | Ki [1, 4] [nM] | Ki (human 5-HT1a receptors; [5]) [nM] | Ki [2, 6] [nM] | Ki [3, 7] [nM] | Ki (human 5HT2a receptors; [8]) [nM] | Ki [1] [nM] | Ki (human 5-HT1a receptors) [nM] | Ki [2] [nM] | Ki [3] [nM] | Ki (human 5HT2a receptors) [nM]
1 | N=C(NCc1cccc2ccccc12)NC(=O)N[C@H]1C[C@@H]2CC[C@H]1C2 [Example 23, 1-({[({[(1S,2S,4R)Bicyclo[2.2.1]hept-2-ylamino]carbonyl}amino) (imino)methyl]amino}methyl)naphthalene] | 1930 | 220 | 280 | 9.7 | 4 |  |  |  |  | 
2 | COc1ccc(CN2CCC(CNC(=O)NC(=N)NCc3cccc4ccccc34)CC2)cc1C [Example 68, 4-({[({Imino[(1-naphthylmethyl)amino]methyl}amino)carbonyl]amino}methyl)-1-(4-methoxy-3-methylbenzyl)piperidine] | 910 | 1680 | 1540 | 18 | 10 |  |  |  |  | 
3 | Cc1cccc(CN2CCC(CNC(=O)NC(=N)NCc3cccc4ccccc34)CC2)c1 [Example 72, 4-({[({Imino[(1-naphthylmethyl)amino]methyl}amino)carbonyl]amino}methyl)-1-(3-methylbenzyl)piperidine] | 880 | 420 | 880 | 15 | 5.3 |  |  |  |  | 
4 | N=C(NCc1cccc2ccccc12)NC(=O)N1CCC(Nc2ccccc2)CC1 [Example 25, N-[(4-Anilino-1-piperidinyl)carbonyl]-N-(1-naphthylmethyl)guanidine] |  |  |  |  |  | > 10000 | 2590 | 1470 | 7.4 | 120
5 | COc1ccccc1CN1CCN(C(=O)NC(=N)NCc2cccc3ccccc23)CC1 [Example 5, N-{[4-(2-Methoxybenzyl)-1-piperazinyl]carbonyl}-N′-(1-naphthylmethyl)guanidine] | 1960 | 2390 | 2010 | 26 | 46 |  |  |  |  | 
6 | Cc1ccc(CN2CCC(CNC(=O)NC(=N)NCc3cccc4ccccc34)CC2)cc1 [Example 76, 4-({[({Imino[(1-naphthylmethyl)amino]methyl}amino)carbonyl]amino}methyl)-1-(4-methylbenzyl)piperidine] | 3380 | 550 | 1900 | 46 | 6.8 |  |  |  |  | 
7 | N=C(NCc1cccc2ccccc12)NC(=O)N1CCN(Cc2ccccc2)CC1 [Example 7, N-[(4-Benzyl-1-piperazinyl)carbonyl]-N′-(1-naphthylmethyl)guanidine] | > 10000 | 1690 | 770 | 1.4 | 43 |  |  |  |  | 
8 | N=C(NCc1cccc2ccccc12)NC(=O)NC[C@@H]1CCCC[C@H]1O [Example 46, 1-({[{[({[(1S,2R)-2-Hydroxycyclohexyl]methyl}amino)carbonyl]amino}(imino)methyl]amino}methyl)naphthalene] | 500 | 49 | 410 | 9.8 | 0.6 |  |  |  |  | 
9 | N=C(NCc1cccc2ccccc12)NC(=O)NCC1CCN(Cc2ccc([N+](=O)[O-])cc2)CC1 [Example 60, 4-({[({Imino[(1-naphthylmethyl)amino]methyl}amino)carbonyl]amino}methyl)-1-(4-nitrobenzyl)piperidine] | 3470 | 68 | 1870 | 51 | 16 |  |  |  |  | 
10 | N=C(NCc1c(Cl)cccc1Oc1ccccc1)NC(=O)N1CCC(Nc2ccccc2)CC1 [Example 80, N-[(4-Anilino-1-piperidinyl)carbonyl]-N′-(2-chloro-6-phenoxybenzyl)guanidine] |  |  |  |  |  | 2300 | 3650 | > 2500 | 41 | 930
